Values of other authors as cited in patent US10092545B2, “Nutritional supplements for improving female fertility” (Fairhaven Health, LLC, priority 2016, dated 2018).

Assays:
[1] = system: oocyte-specific Pdss2-deficient animals; conditions: maternal dietary administration
obese women with PCOS = conditions: administering for as little as two months
females = females taking myo-inositol

## COC1=C(OC)C(=O)C(C/C=C(\C)CC/C=C(\C)CC/C=C(\C)CC/C=C(\C)CC/C=C(\C)CC/C=C(\C)CC/C=C(\C)CC/C=C(\C)CC/C=C(\C)CCC=C(C)C)=C(C)C1=O [CoQ10, Coenzyme Q10]
[1]
  premature ovarian failure: could be prevented

## [Cr] [chromium]
Obese women with PCOS
  improvement of insulin sensitivity: more than 30%

## COc1ccc2[nH]cc(CCNC(C)=O)c2c1 [melatonin]
Infertile women
  fertilization and pregnancy rates: elevates
  intra-follicular melatonin concentrations: increases
  intra-follicular oxidative damage: reduces

## O[C@H]1[C@H](O)[C@@H](O)[C@H](O)[C@@H](O)[C@H]1O [myo-inositol]
females
  insulin sensitivity: increased
  serum testosterone level: decreased
